# Assay results taken from patent US20230138327A1, “COMPOSITIONS AND METHODS CONTAINING REDUCED NICOTINAMIDE RIBOSIDE FOR PREVENTION AND TREATMENT OF PANCREATIC DISEASES AND CONDITIONS” (SOCIETE DES PRODUITS NESTLE S.A., priority 2020, published 2023).
# “Also recorded” adds a separate entry of the source.
# Tests used:
# AML12 hepatocytes = assay: Intracellular NAD+ levels in AML12 hepatocytes treated with NRH or NR; assay type: cell-based
# Experimental: Even at such relatively low dose, NRH achieved similar increases in intracellular NAD+ levels to those reached with NR at 50-fold higher concentrations.
# NRH actions were also extremely fast (FIG. 3), as significant increases in NAD+ levels were observed within 5 minutes after NRH treatment.
# AML12 cells = assay: Pathway of NRH-induced NAD+ synthesis: intracellular metabolites and pathway inhibitors; assay type: cell-based
# Experimental: FIG. 4. NRH leads to NAD+ biosynthesis through an adenosine kinase dependent path. AML12 cells were treated with an adenosine kinase inhibitor (5-IT; […]) for 1 hour prior to NRH treatment at the doses indicated. Then, 1 hour later, acidic extracts were obtained to measure NAD levels. All values in the figure are expressed as mean+/−SEM of 3 independent experiments. * indicates statistical difference at p<0.05 vs. the respective vehicle treated group.
# (§1) Levels of NRH and other NAD-related metabolites in biological samples were obtained by using a cold liquid-liquid extraction using a mixture of methanol:water:chloroform in 5:3:5 (v/v), from which the polar phase was recovered for hydrophilic interaction ultra-high performance liquid chromatography mass spectrometry (UHPLC-MS) analysis. The UHPLC consisted of a binary pump, a cooled autosampler, and a column oven (DIONEX Ultimate 3000 UHPLC+ Focused, Thermo Scientific), connected to a triple quadrupole spectrometer (TSQ Vantage, Thermo Scientific) equipped with a heated electrospray ionisation (H-ESI) source. Of each sample, 2 μL were injected into the analytical column (2.1 mm×150 mm, 5 μm pore size, 200 Å HILICON iHILIC®-Fusion(P)), guarded by a pre-column (2.1 mm×20 mm, 200 Å HILICON iHILIC®-Fusion(P) Guard Kit) operating at 35° C. The mobile phase (10 mM ammonium acetate at pH 9, A, and acetonitrile, B) was pumped at 0.25 mL/min flow rate over a linear gradient of decreasing organic solvent (0.5-16 min, 90-25% B), followed by re-equilibration for a total run time of 30 min. The MS operated in positive mode at 3500 V with multiple reaction monitoring (MRM). The software Xcalibur v4.1.31.9 (Thermo Scientific) was used for instrument control, data acquisition and processing. Retention time and mass detection was confirmed by authentic standards.
# A path in which NRH would be converted to NMNH, then to NADH and this would be finally oxidized to NAD+.
# In order to understand the exact path by which NRH synthesizes NAD+, we initially evaluated whether NRH, could be transported into the cell by equilibrative nucleoside transporters (ENTs).
# The action of NRH was also NAMPT-independent, based on experiments using FK866, a NAMPT inhibitor. If NRH led to NAD+ synthesis via the formation of NMNH, this hypothetical path would require the phosphorylation of NRH into NMNH. Given the essential and rate-limiting role of NRK1 in NR phosphorylation, we wondered whether the ability of NRH to boost NAD+ levels was NRK1 dependent. To answer this question, we evaluated NRH action in primary hepatocytes from either control or NRK1 knockout (NRK1KO) mice. […] Further, they rule out the possibility that NRH-induced NAD+ […] is driven by NRH oxidation into NR.
# Considering the molecular structure of NRH, we reasoned that an alternative nucleoside kinase could be responsible for the phosphorylation of NRH. […] The role of AK in NRH-mediated NAD+ synthesis was confirmed using a second, structurally different, AK inhibitor, ABT-702. Metabolomic analyses further confirmed that upon inhibition of AK, the generation of NMNH, NADH and NAD+ was fully blunted, even if NRH was effectively entering the cell.
# As a follow-up step, NMNAT enzymes could catalyze the transition from NMNH to NADH. […] Yet, part of the NRH action remained after gallotannin treatment when NRH was used at maximal doses.
# [1] = Stability of NRH or NR spiked in isolated mouse plasma; assay type: in vitro ADME
# Excerpt: as §1
# mice = assay: Tissue NAD+ levels in mice after intraperitoneal injection; assay type: in vivo; conditions: IP 500 mg/kg, after 1 h
# Experimental: The above results prompted us to test whether NRH could act as an effective NAD+ precursor in vivo. For this, we first intraperitoneally (IP) injected mice with either NR or NRH (500 mg/kg). […] Importantly, NRH was detectable in circulation after IP injection.
# [2] = Tissue NRH levels in mice after oral gavage (LC-MS); assay type: in vivo; conditions: oral gavage 250 mg/kg (stable isotope-labelled NRH), 2 hours
# Experimental: (§2) 8 week-old C57BI/6NTac mice were orally gavaged with either saline (as vehicle), and an stable isotope-labelled NRH (250 mg/kg). After 2 hours, pancreas NRH levels were evaluated. All results are expressed as mean+/−SEM of n=4 mice per group, as areas under the signal by LC-MS analysis, corrected by total protein amount of tissue.
# as §2, with “and” for “and an stable isotope-labelled”, “liver, skeletal muscle and kidney” for “pancreas”
# Levels of NRH and other NAD-related metabolites in biological samples were obtained by using a cold liquid-liquid extraction using a mixture of methanol:water:chloroform in 5:3:5 (v/v), from which the polar phase was recovered for hydrophilic interaction ultra-high performance liquid chromatography mass spectrometry (UHPLC-MS) analysis. The UHPLC consisted of a binary pump, a cooled autosampler, and a column oven (DIONEX Ultimate 3000 UHPLC+ Focused, Thermo Scientific), connected to a triple quadrupole spectrometer (TSQ Vantage, Thermo Scientific) equipped with a heated electrospray ionisation (H-ESI) source. […]
# INS-1E cells = assay: Oxidative stress (H2O2)-induced pancreatic β-cell death, cell viability; assay type: cell-based; conditions: H2O2 0.4 mM, 24 hours, NRH 0.1 mM
# Experimental: INS-1E cells were treated with hydrogen peroxide (H2O2; 0.4 mM) for 24 hrs in the presence or absence of NRH (0.1 mM). PBS was used as vehicle for NRH. After 24 hrs, cell viability was evaluated by lumiscence using a commercial kit (Cell Title-Glow; Promega). All results are expressed as mean+/−SEM of n=5 experiments. * indicates P<0.05 vs. the respective vehicle treated group.
# INS-1E cells were treated with hydrogen peroxide (H2O2; 0.4 mM) for 24 hours in the presence or absence of NRH (0.1 mM). PBS was used as vehicle for NRH. After 24 hours, cell viability was evaluated by luminescence using a commercial kit (Cell Title-Glow; Promega).
structure (smiles),measurement,setting,value
NC(=O)C1=CN([C@@H]2O[C@H](CO)[C@@H](O)[C@H]2O)C=CC1 [NRH],Ability to increase intracellular NAD+ compared with NR,AML12 hepatocytes; AML12 hepatocytes,superior to that of NR
same,Concentration range of maximal effects on NAD+ synthesis,AML12 hepatocytes; AML12 hepatocytes,around the millimolar range
same,Time after treatment at which significant increases in NAD+ levels were observed,AML12 hepatocytes; AML12 hepatocytes (FIG. 3),≤ 5 min
same,Fold higher NR concentration needed for similar increase in intracellular NAD+ as NRH at 10 μM,"AML12 hepatocytes; AML12 hepatocytes, NRH 10 μM vs NR",50 fold
same,Increase of intracellular NAD+ levels at maximal effect,"AML12 hepatocytes; AML12 hepatocytes, around the millimolar range",more than 10 fold
same,Concentration at which NAD+ levels are significantly increased,"AML12 hepatocytes; AML12 hepatocytes, dose-response (FIG. 2)",10 µM
same,Intracellular detection of NRH and NMNH,AML12 cells; 5 minutes after treatment,could be detected
same,Increase in intracellular NR and NMN,"AML12 cells; after NRH treatment, vs NR treatment",greater than that triggered by NR itself
same,Capacity as extracellular NAD+ precursor under ENT blockage,AML12 cells; in the presence of S-(4-nitrobenzyl)-6-thioinosine (NBTI),largely lost its capacity
same,"Generation of NMNH, NADH and NAD+ from NRH upon inhibition of AK",AML12 cells; metabolomic analyses,fully blunted
same,Dependence of NAD+ increase on NAMPT,"AML12 cells; with FK866, a NAMPT inhibitor",NAMPT-independent
same,Compound levels in isolated mouse plasma,[1]; 2 h of incubation,remained stable
same,Generation of NAM in isolated mouse plasma,[1]; 2 h of incubation,not generated; also recorded: did not significantly alter NAM levels
same,NR production in isolated plasma,[1]; NRH incubation in isolated plasma,did not lead to NR production
same,NAD+ levels in kidney,mice,increased NAD+ levels
same,NAD+ levels in liver,mice,increased NAD+ levels
same,NAD+ levels in muscle,mice,increased NAD+ levels
same,NRH levels in pancreas,[2],high levels
same,Cell viability under hydrogen peroxide,INS-1E cells,protects against oxidative stress-induced pancreatic β-cell death
